Where two headings read alike, the source gives them in different places.
Molecular target: T1, SMARCA2 (Homo sapiens, UniProt P51531)
T1 construct: endogenous in cells
Assay: SMARCA2 HiBiT degradation assay (cellular)
Type: cell-based
Conditions: for DC50: read-out: HiBit A549 SMARCA2 IP

[1] = A549, Emax = amount of residual protein remaining in the cell following compound treatment
[2] = SMARCA2 HiBiT cells, luminescence readout, 11-point titration from 10 μM, 6 hours or 16 hours

T1 sequence (P51531 whole entry): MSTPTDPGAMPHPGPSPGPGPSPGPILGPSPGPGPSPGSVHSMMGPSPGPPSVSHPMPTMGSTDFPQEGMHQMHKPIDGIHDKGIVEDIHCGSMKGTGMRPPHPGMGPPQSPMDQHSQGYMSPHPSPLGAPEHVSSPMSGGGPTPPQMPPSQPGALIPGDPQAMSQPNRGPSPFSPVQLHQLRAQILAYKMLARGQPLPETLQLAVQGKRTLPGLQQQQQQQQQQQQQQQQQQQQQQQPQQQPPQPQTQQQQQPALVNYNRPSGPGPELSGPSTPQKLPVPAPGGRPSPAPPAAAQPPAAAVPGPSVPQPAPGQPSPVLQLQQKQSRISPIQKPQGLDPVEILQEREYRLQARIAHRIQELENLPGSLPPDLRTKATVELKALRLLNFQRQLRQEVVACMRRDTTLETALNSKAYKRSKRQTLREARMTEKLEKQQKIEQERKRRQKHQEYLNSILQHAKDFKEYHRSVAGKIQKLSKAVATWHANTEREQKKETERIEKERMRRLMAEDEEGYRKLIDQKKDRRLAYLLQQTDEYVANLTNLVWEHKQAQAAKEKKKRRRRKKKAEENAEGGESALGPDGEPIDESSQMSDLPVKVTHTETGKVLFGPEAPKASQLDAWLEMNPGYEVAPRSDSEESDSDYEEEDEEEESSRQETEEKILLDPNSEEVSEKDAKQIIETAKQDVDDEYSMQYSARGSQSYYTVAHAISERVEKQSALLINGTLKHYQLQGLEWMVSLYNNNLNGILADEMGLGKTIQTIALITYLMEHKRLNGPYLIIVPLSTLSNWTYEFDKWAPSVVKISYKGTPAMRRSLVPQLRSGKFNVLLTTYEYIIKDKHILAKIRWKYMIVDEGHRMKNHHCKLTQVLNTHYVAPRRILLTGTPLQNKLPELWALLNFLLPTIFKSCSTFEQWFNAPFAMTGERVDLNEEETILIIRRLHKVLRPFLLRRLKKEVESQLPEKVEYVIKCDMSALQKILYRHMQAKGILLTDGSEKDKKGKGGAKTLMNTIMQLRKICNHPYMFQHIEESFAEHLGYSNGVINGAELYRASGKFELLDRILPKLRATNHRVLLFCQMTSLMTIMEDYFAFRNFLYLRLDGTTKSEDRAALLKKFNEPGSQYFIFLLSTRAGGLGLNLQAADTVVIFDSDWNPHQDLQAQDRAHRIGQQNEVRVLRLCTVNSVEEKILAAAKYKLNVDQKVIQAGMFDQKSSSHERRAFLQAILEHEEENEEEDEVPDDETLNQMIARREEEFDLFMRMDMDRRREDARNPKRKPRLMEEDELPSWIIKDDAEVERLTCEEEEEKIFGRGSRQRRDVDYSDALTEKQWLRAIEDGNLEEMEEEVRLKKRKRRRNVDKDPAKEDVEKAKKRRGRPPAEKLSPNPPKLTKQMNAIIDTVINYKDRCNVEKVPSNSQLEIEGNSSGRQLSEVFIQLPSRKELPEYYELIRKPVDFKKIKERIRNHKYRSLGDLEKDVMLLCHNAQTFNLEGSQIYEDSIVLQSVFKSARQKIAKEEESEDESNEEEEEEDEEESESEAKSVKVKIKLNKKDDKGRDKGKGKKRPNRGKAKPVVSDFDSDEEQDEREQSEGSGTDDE

Row | Structure (SMILES) | Emax [1] [%] | DC50 [2] [µM] | Emax (A549, different HIBIT SMARCA2 clone (footnote a), residual protein remaining) [%] | DC50 (different HIBIT SMARCA2 clone (footnote a)) [µM]
1 | Cc1ncsc1-c1ccc(CNC(=O)[C@@H]2C[C@@H](O)CN2C(=O)[C@@H](NC(=O)CCCCCCCCC(=O)NC2C3CCC2CN(c2cc(-c4ccccc4O)nnc2N)C3)C(C)(C)C)cc1 (stereo partly drawn) [Example 89, N-[3-[3-amino-6-(2-hydroxyphenyl)pyridazin-4-yl]-3-azabicyclo[3.2.1]octan-8-yl]-N′-[(1S)-1-[(2S,4R)-4-hydroxy-2-[[4-(4-methylthiazol-5-yl)phenyl]methylcarbamoyl]pyrrolidine-1-carbonyl]-2,2-dimethyl-propyl]decanediamide] | 56 | 1.01 | – | –
2 | Cc1ncsc1-c1ccc([C@H](C)NC(=O)[C@@H]2C[C@@H](O)CN2C(=O)[C@@H](NC(=O)CCCCCC(=O)N2CCN(c3cccc(OC4CN(c5cc(-c6ccccc6O)nnc5N)C4)c3)CC2)C(C)(C)C)cc1 [Example 94, (2S,4R)-1-[(2S)-2-[[7-[4-[3-[1-[3-amino-6-(2-hydroxyphenyl)pyridazin-4-yl]azetidin-3-yl]oxyphenyl]piperazin-1-yl]-7-oxo-heptanoyl]amino]-3,3-dimethyl-butanoyl]-4-hydroxy-N-[(1S)-1-[4-(4-methylthiazol-5-yl)phenyl]ethyl]pyrrolidine-2-carboxamide] | 43 | 0.693 | – | –
3 | Cc1ncsc1-c1ccc(CNC(=O)[C@@H]2C[C@@H](O)CN2C(=O)[C@@H](NC(=O)CCCCCCCCC(=O)N[C@H]2C[C@H](Oc3cc(-c4ccccc4O)nnc3N)C2)C(C)(C)C)cc1 [Example 95, N-[3-[3-amino-6-(2-hydroxyphenyl)pyridazin-4-yl]oxycyclobutyl]-N′-[(1S)-1-[(2S,4R)-4-hydroxy-2-[[4-(4-methylthiazol-5-yl)phenyl]methylcarbamoyl]pyrrolidine-1-carbonyl]-2,2-dimethyl-propyl]decanediamide] | 50 | 2.44 | – | –
4 | Cc1ncsc1-c1ccc([C@H](C)NC(=O)[C@@H]2C[C@@H](O)CN2C(=O)[C@@H](NC(=O)CCCCCCCCC(=O)N2CCN(c3cccc(OC4CN(c5cc(-c6ccccc6O)nnc5N)C4)c3)CC2)C(C)(C)C)cc1 [Example 96, (2S,4R)-1-[(2S)-2-[[10-[4-[3-[1-[3-amino-6-(2-hydroxyphenyl)pyridazin-4-yl]azetidin-3-yl]oxyphenyl]piperazin-1-yl]-10-oxo-decanoyl]amino]-3,3-dimethyl-butanoyl]-4-hydroxy-N-[(1S)-1-[4-(4-methylthiazol-5-yl)phenyl]ethyl]pyrrolidine-2-carboxamide] | 28 | 0.2 | – | –
5 | Cc1ncsc1-c1ccc(CNC(=O)[C@@H]2C[C@@H](O)CN2C(=O)[C@@H](NC(=O)CCCCCCCCC(=O)N2CCC(CNC(=O)C3(c4ccccc4)CCN(c4cc(-c5ccccc5O)nnc4N)CC3)CC2)C(C)(C)C)cc1 [Example 99, 1-[3-amino-6-(2-hydroxyphenyl)pyridazin-4-yl]-N-[[1-[10-[[(1S)-1-[(2S,4R)-4-hydroxy-2-[[4-(4-methylthiazol-5-yl)phenyl]methylcarbamoyl]pyrrolidine-1-carbonyl]-2,2-dimethyl-propyl]amino]-10-oxo-decanoyl]-4-piperidyl]methyl]-4-phenyl-piperidine-4-carboxamide] | 59 | 0.827 | – | –
6 | Cc1ncsc1-c1ccc(CNC(=O)[C@@H]2C[C@@H](O)CN2C(=O)[C@@H](NC(=O)CCCCCCCCC(=O)N2CCN(c3ccc(N4CCCC(Oc5cc(-c6ccccc6N)nnc5N)C4)cc3)CC2)C(C)(C)C)cc1 (stereo partly drawn) [Example 100, (2S,4R)-1-[(2S)-2-[[10-[4-[4-[3-[3-amino-6-(2-aminophenyl)pyridazin-4-yl]oxy-1-piperidyl]phenyl]piperazin-1-yl]-10-oxo-decanoyl]amino]-3,3-dimethyl-butanoyl]-4-hydroxy-N-[[4-(4-methylthiazol-5-yl)phenyl]methyl]pyrrolidine-2-carboxamide] | 62 | 0.998 | – | –
7 | Cc1ncsc1-c1ccc([C@H](C)NC(=O)[C@@H]2C[C@@H](O)CN2C(=O)[C@@H](NC(=O)CCCCCCCCC(=O)N2CCN(C(=O)c3cccc(OC4CN(c5cc(-c6ccccc6O)nnc5N)C4)c3)CC2)C(C)(C)C)cc1 [Example 101, (2S,4R)-1-[(2S)-2-[[10-[4-[3-[1-[3-amino-6-(2-hydroxyphenyl)pyridazin-4-yl]azetidin-3-yl]oxybenzoyl]piperazin-1-yl]-10-oxo-decanoyl]amino]-3,3-dimethyl-butanoyl]-4-hydroxy-N-[(1S)-1-[4-(4-methylthiazol-5-yl)phenyl]ethyl]pyrrolidine-2-carboxamide] | 38 | 0.101 | – | –
8 | Cc1ncsc1-c1ccc(CNC(=O)[C@@H]2C[C@@H](O)CN2C(=O)[C@@H](NC(=O)CCCCCCCCCC(=O)N2CCN(Cc3cccc(N4C5CCC4CN(c4cc(-c6ccccc6N)nnc4N)C5)c3)CC2)C(C)(C)C)cc1 [Example 102, (2S,4R)-1-[(2S)-2-[[11-[4-[[3-[3-[3-amino-6-(2-aminophenyl)pyridazin-4-yl]-3,8-diazabicyclo[3.2.1]octan-8-yl]phenyl]methyl]piperazin-1-yl]-11-oxo-undecanoyl]amino]-3,3-dimethyl-butanoyl]-4-hydroxy-N-[[4-(4-methylthiazol-5-yl)phenyl]methyl]pyrrolidine-2-carboxamide] | 59 | 0.992 | – | –
9 | Cc1ncsc1-c1ccc([C@H](C)NC(=O)[C@@H]2C[C@@H](O)CN2C(=O)[C@@H](NC(=O)CCCCCC(=O)N2CCN(C(=O)c3ccc(OC4CN(c5cc(-c6ccccc6O)nnc5N)C4)cc3)CC2)C(C)(C)C)cc1 [Example 103, (2S,4R)-1-[(2S)-2-[[7-[4-[4-[1-[3-amino-6-(2-hydroxyphenyl)pyridazin-4-yl]azetidin-3-yl]oxybenzoyl]piperazin-1-yl]-7-oxo-heptanoyl]amino]-3,3-dimethyl-butanoyl]-4-hydroxy-N-[(1S)-1-[4-(4-methylthiazol-5-yl)phenyl]ethyl]pyrrolidine-2-carboxamide] | 60 | 1.89 | – | –
10 | Cc1ncsc1-c1ccc([C@H](C)NC(=O)[C@@H]2C[C@@H](O)CN2C(=O)[C@@H](NC(=O)CCCCCCCCC(=O)N2CCN(C(=O)c3ccc(OC4CN(c5cc(-c6ccccc6O)nnc5N)C4)cc3)CC2)C(C)(C)C)cc1 [Example 104, (2S,4R)-1-[(2S)-2-[[10-[4-[4-[1-[3-amino-6-(2-hydroxyphenyl)pyridazin-4-yl]azetidin-3-yl]oxybenzoyl]piperazin-1-yl]-10-oxo-decanoyl]amino]-3,3-dimethyl-butanoyl]-4-hydroxy-N-[(1S)-1-[4-(4-methylthiazol-5-yl)phenyl]ethyl]pyrrolidine-2-carboxamide] | 54 | 0.375 | – | –
11 | Cc1ncsc1-c1ccc([C@H](C)NC(=O)[C@@H]2C[C@@H](O)CN2C(=O)[C@@H](NC(=O)CCCCCC(=O)N2CCN(Cc3cccc(CCOc4cc(-c5ccccc5O)nnc4N)c3)CC2)C(C)(C)C)cc1 [Example 105, (2S,4R)-1-[(2S)-2-[[7-[4-[[3-[2-[3-amino-6-(2-hydroxyphenyl)pyridazin-4-yl]oxyethyl]phenyl]methyl]piperazin-1-yl]-7-oxo-heptanoyl]amino]-3,3-dimethyl-butanoyl]-4-hydroxy-N-[(1S)-1-[4-(4-methylthiazol-5-yl)phenyl]ethyl]pyrrolidine-2-carboxamide] | 40 | 0.923 | – | –
12 | Cc1ncsc1-c1ccc([C@H](C)NC(=O)[C@@H]2C[C@@H](O)CN2C(=O)[C@@H](NC(=O)CCCCCCCCC(=O)N2CCN(Cc3cccc(CCOc4cc(-c5ccccc5O)nnc4N)c3)CC2)C(C)(C)C)cc1 [Example 106, (2S,4R)-1-[(2S)-2-[[10-[4-[[3-[2-[3-amino-6-(2-hydroxyphenyl)pyridazin-4-yl]oxyethyl]phenyl]methyl]piperazin-1-yl]-10-oxo-decanoyl]amino]-3,3-dimethyl-butanoyl]-4-hydroxy-N-[(1S)-1-[4-(4-methylthiazol-5-yl)phenyl]ethyl]pyrrolidine-2-carboxamide] | 39 | 0.346 | – | –
13 | Cc1ncsc1-c1ccc(CNC(=O)[C@@H]2C[C@@H](O)CN2C(=O)[C@@H](NC(=O)CCCCCCCCC(=O)N2CCN(Cc3cccc(N4C5CCC4CN(c4cc(-c6cc(F)ccc6O)nnc4N)C5)c3)CC2)C(C)(C)C)cc1 [Example 107, (2S,4R)-1-[(2S)-2-[[10-[4-[[3-[3-[3-amino-6-(5-fluoro-2-hydroxy-phenyl)pyridazin-4-yl]-3,8-diazabicyclo[3.2.1]octan-8-yl]phenyl]methyl]piperazin-1-yl]-10-oxo-decanoyl]amino]-3,3-dimethyl-butanoyl]-4-hydroxy-N-[[4-(4-methylthiazol-5-yl)phenyl]methyl]pyrrolidine-2-carboxamide] | – | – | 18 | 0.082
14 | Cc1ncsc1-c1ccc(CNC(=O)[C@@H]2C[C@@H](O)CN2C(=O)[C@@H](NC(=O)CCCCCCCCCC(=O)N2CCN(CCOc3cccc(N4CC5CCC(C4)N5c4cc(-c5cc(F)ccc5O)nnc4N)c3)CC2)C(C)(C)C)cc1 [Example 110, (2S,4R)-1-[(2S)-2-[[11-[4-[2-[3-[8-[3-amino-6-(5-fluoro-2-hydroxy-phenyl)pyridazin-4-yl]-3,8-diazabicyclo[3.2.1]octan-3-yl]phenoxy]ethyl]piperazin-1-yl]-11-oxo-undecanoyl]amino]-3,3-dimethyl-butanoyl]-4-hydroxy-N-[[4-(4-methylthiazol-5-yl)phenyl]methyl]pyrrolidine-2-carboxamide] | 76 | 0.76 | – | –

Reference: US20230002367A1, “BIFUNCTIONAL COMPOUNDS” (Hoffmann-La Roche Inc., priority 2019, published 2023)
